Measured values from US6913767B1, “Compositions for microencapsulation of antigens for use as vaccines” (priority 1993, dated 2005).

Test: Stability (intact fraction) of QS21
Format: physicochemical
Details: same time (74 days), same conditions
Method: QS21 controls were also run. In RP-HPLC analysis, the rgp120 peak elutes before the QS21 peak and, therefore, this method provides simultaneous quantitation of QS21 and rgp120 released from the microspheres.
Microspheres containing QS21, or QS21 with MN rgp120, were incubated in physiological buffer at 37° C. to assess the time for release of the second burst.

With QS21 the “intact QS21 in solution” value was “less than 25%”.
